Test results as given in US20010053848A1, “Hetero-oligomeric G protein-coupled receptors as novel drug targets” (priority 2000, published 2001).
Where two headings read alike, the source gives them in different places. Marks after values point to notes of the source that are not given here.

Experiments:
[1] = molecular target: HA-SSTR5 and D2R hetero-oligomer (Homo sapiens, UniProt P14416+P35346); assay: pbFRET microscopy, CHO-K1 cells co-expressing HA-SSTR5 and D2R; assay type: cell-based
Protocol: Generally, FRET efficiencies are determined indirectly by measuring changes in the quantum yield of any competitive donor deactivation process upon introduction of an acceptor molecule. Donor photobleaching represents such a competitive process which is exploited in pbFRET-microscopy. The effective FRET efficiency E is calculated from the photobleaching time constants of the donor obtained in the absence (τD−A) and presence (τD+A) of acceptor according to: [formula]
CHO-K1 cells, stably cotransfected with HA-hSSTR5 and D2R, were grown on glass coverslips for 24 hours, treated with various agonists/antagonists for 30 minutes at 37° C., washed and fixed in 1% paraformaldehyde for 30 minutes on ice. […] Coverslips were mounted on microscope slides and used for pbFRET-microscopy the day after.
pbFRET experiments were performed on a Leica DMLB fluorescence microscope equipped with epi-illumination. An OSRAM HBO 100 W Hg lamp was used as excitation light source and the objective was a Leica pl-fluotar 40× oil immersion lens. […] For each cell, a sequence of 20 images was acquired during donor-photobleaching. One image was collected every 4 s with exposure time of 1 s. Exposure as well as time delays were software controlled.
Images were corrected for dark current, background and flatness. For analysis of the photobleaching decay, only the high-intensity plasma membrane region was considered, low intensity background and intracellular regions were masked.
HA-hSSTR5 and D2R were specifically labeled with FITC (donor) and rhodamine (acceptor), respectively using mouse monoclonal antibody against HA and rabbit polyclonal anti-D2R antibody, followed by reaction with FITC conjugated goat anti-mouse and rhodamine conjugated goat anti-rabbit secondary antibody. […] FIG. 4A Left panel: HA-SSTR5 (visualized with mouse anti-HA mAb and FITC-conjugated goat anti-mouse IgG). FIG. 4A Middle panel: D2R (rabbit polyclonal antibody and rhodamine-conjugated goat anti-rabbit IgG). […] Magnification: ×630.
The decrease in donor fluorescence intensity due to photobleaching during prolonged exposure to excitation light was monitored in the absence (FIG. 4B, I-III) or presence (FIG. 4B, IV-VI) of acceptor, i.e. in the potential presence of an additional donor deactivation process, FRET. Cells were reacted with primary antibodies and either with FITC-conjugated goat-anti-mouse IgG (donor in the absence of acceptor) (I-III), or with both FITC-conjugated goat-anti-mouse and rhodamine-conjugated goat-anti-rabbit IgG (donor in the presence of acceptor) (IV-VI). FIG. 4B I. Photobleaching of donor in the absence of acceptor (only selection of images shown). For analysis of the photobleaching decay, only the high-intensity membrane region was considered, low intensity background and intracellular regions were masked (black). […] FIG. 4B II. The average fluorescence intensity of each image was plotted versus the time that the cell had been exposed to excitation light. […] FIG. 4B III. The decrease of fluorescence intensity was analysed for each pixel of the unmasked region and fitted to a single-exponential decay. The resulting time constants were plotted in the histogram shown. […] Photobleaching of donor in the presence of acceptor. […] FIG. 4B, IV-VI.
The photobleaching decay was analyzed for the plasma membrane regions, both on a pixel-by-pixel basis (FIG. 4, III & VI) as well as averaged over each image (FIG. 4, II & V).

[2] = molecular target: T1, delta318 SSTR5-D2R putative hetero-oligomers (Homo sapiens, UniProt P14416+P35346, DEL319-364); assay: cell-based; conditions: for effect on SST inhibition of forskolin-stimulated cAMP: pertussis toxin 100 ng/ml pretreatment 2 h, sulpiride 10^−4 M
T1 construct: expressed in transfected cells

wild type hSSTR5 and DOR = wild type hSSTR5 and DOR (Homo sapiens, UniProt P35346+P41143); conditions: for effect on inhibition of radioligand binding induced by GTPγS: [125I] LTT SST-28 radioligand
From the text: LTT SST-28 binding by the cotransfectants. In order to characterize G protein function, wild type hSSTR5 and DOR were stably coexpressed in CHO-K1 cells.

HA-SSTR5 and D2R = HA-SSTR5 and D2R (Homo sapiens, UniProt P14416+P35346); conditions: GTPγS 10^−4M, 30 min at 37° C.
[3] = molecular target: T2, delta C-tail hSSTR5 with DOR (Homo sapiens, UniProt P35346+P41143, DEL319-364); assay: Inhibition of forskolin-stimulated cAMP, delta C-tail hSSTR5 co-expressed with DOR in CHO-K1 cells; assay type: cell-based; conditions: naltrindole (10^−5 M)
T2 construct: expressed in transfected cells

[4] = molecular target: T3, DOR and SSTR5 hetero-oligomer (Homo sapiens, UniProt P35346+P41143); assay: Inhibition of FSK-stimulated cAMP, hSSTR5/DOR cotransfectants; assay type: cell-based; conditions: SST-14 plus naltrindole
T3 construct: expressed in transfected cells

[5] = intrathecal or epidural; post-operative and neoplastic pain; cited from earlier work
[6] = i.c.v. in monkeys; cited from earlier work

Chain of wild type hSSTR5 and DOR (P35346 whole entry): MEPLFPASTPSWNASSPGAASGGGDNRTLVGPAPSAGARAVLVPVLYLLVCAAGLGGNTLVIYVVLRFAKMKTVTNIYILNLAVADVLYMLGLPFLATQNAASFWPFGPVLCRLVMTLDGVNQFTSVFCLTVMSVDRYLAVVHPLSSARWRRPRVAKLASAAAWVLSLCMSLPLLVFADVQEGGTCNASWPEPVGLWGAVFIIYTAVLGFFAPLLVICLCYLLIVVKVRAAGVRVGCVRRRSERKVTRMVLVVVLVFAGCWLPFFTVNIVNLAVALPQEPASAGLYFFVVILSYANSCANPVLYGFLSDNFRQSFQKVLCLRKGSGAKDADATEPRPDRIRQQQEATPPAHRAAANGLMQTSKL
Chain of wild type hSSTR5 and DOR (P41143 whole entry): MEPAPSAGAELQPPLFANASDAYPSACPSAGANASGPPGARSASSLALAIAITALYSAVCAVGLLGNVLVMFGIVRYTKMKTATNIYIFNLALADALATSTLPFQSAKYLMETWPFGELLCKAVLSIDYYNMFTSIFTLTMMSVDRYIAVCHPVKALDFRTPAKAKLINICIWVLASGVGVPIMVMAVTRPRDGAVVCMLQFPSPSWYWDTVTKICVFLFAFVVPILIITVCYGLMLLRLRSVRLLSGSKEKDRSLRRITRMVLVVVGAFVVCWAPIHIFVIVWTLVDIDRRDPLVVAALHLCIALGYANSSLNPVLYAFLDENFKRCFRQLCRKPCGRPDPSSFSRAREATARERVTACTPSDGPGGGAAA
Chain of HA-SSTR5 and D2R hetero-oligomer (P35346 whole entry): as the sequence (P35346 whole entry) above
Chain of HA-SSTR5 and D2R hetero-oligomer (P14416 whole entry): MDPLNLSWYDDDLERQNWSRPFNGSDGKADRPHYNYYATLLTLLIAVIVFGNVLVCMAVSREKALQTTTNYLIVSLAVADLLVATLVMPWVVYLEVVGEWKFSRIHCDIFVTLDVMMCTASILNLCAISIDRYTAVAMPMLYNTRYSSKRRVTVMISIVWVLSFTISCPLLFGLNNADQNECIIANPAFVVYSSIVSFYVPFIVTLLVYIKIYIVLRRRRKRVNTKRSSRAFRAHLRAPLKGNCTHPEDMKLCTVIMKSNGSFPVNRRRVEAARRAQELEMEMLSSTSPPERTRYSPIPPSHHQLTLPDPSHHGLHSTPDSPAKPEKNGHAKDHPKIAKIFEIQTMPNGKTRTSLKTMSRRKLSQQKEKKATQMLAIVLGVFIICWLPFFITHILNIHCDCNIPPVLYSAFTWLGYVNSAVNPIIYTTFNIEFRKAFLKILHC
T1 sequence (P14416 whole entry, stated change not applied): as the sequence (P14416 whole entry) above
T1 sequence (P35346 1-318, stated change not applied): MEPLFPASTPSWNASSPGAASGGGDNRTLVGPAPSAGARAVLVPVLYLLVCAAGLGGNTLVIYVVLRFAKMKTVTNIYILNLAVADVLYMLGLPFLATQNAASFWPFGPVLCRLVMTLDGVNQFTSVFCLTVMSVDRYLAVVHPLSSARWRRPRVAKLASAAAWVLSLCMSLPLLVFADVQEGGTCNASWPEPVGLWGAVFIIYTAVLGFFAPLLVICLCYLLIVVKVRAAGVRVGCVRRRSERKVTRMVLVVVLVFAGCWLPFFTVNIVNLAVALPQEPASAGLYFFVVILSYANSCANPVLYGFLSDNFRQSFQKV
T2 sequence (P35346 1-318 limits assumed, stated change not applied): as the sequence (P35346 1-318, stated change not applied) above
T2 sequence (P41143 whole entry, stated change not applied): as the sequence (P41143 whole entry) above
T3 sequence (P35346 whole entry): as the sequence (P35346 whole entry) above
T3 sequence (P41143 whole entry): as the sequence (P41143 whole entry) above
Chain of HA-SSTR5 and D2R (P35346 whole entry): as the sequence (P35346 whole entry) above
Chain of HA-SSTR5 and D2R (P14416 whole entry): as the sequence (P14416 whole entry) above

Question: Which “E[%] average effective FRET-efficiency” value [1] does the source give for `NCCc1ccc(O)c(O)c1` [DA, dopamine] here?
Answer: Its value is 16±2%.

Question: What about the “τavg[S] mean photobleaching time constant, D + A” value [1] of the same compound?
Answer: Its value is “D + A: 21.3 ± 0.3 S”.

Question: And the “τavg[S] mean photobleaching time constant, D − A” value [1]?
Answer: Its value is “D − A: 17.9 ± 0.3 S”.

Question: And the inhibition at 1 µM ([2]; CHO-K1, read-out: maximum inhibition of forskolin-stimulated cAMP)?
Answer: The inhibition at 1 µM was 30 ± 1.7%.

Question: Which “effect on inhibition of radioligand binding induced by GTPγS” value (wild type hSSTR5 and DOR) does the source give for `C[C@@H](NC(=O)[C@@H](N)Cc1ccc(O)cc1)C(=O)NCC(=O)N(C)[C@@H](Cc1ccccc1)C(=O)NCCO` [DAMGO, [D-Ala^2, N-MePhe^4, Gly-ol^5]-Enkephalin] here?
Answer: The value was “without effect”.

Question: With `Nc1nc2c(ncn2[C@@H]2O[C@H](COP(=O)(O)OP(=O)(O)OP(O)(O)=S)[C@@H](O)[C@H]2O)c(=O)[nH]1` [GTPγS] as the compound, how does the “decrease in specific radioligand binding” value (HA-SSTR5 and D2R) read?
Answer: The value was 41±3%.

Question: With `CCc1cc(Cl)c(OC)c(C(=O)NC[C@@H]2CCCN2CC)c1O` [eticlopride] as the compound, how does the “E[%] average effective FRET-efficiency” value [1] read?
Answer: Its value is 3±3%.

Question: And the “τavg[S] mean photobleaching time constant, D + A” value [1]?
Answer: The value was “D + A: 19.4 ± 0.4 S”.

Question: And the “τavg[S] mean photobleaching time constant, D − A” value [1]?
Answer: Its value is “D − A: 18.9 ± 0.3*^) S”.

Question: For `Oc1ccc2c3c1O[C@H]1c4[nH]c5ccccc5c4C[C@@]4(O)[C@@H](C2)N(CC2CC2)CC[C@]314` [naltrindole], which “effect on inhibition of radioligand binding induced by GTPγS” value (wild type hSSTR5 and DOR) is on record?
Answer: Its value is “reversed”.

Question: What about the G-protein coupling efficiency (wild type hSSTR5 and DOR; enhancement by DOR ligand) of the same compound?
Answer: Its G-protein coupling efficiency is “reduced coupling”.

Question: And the “effect on SST-14 inhibition of FSK-stimulated cAMP” value [3]?
Answer: Its value is “abolished”.

Question: And the “SST-14 induced cAMP inhibition in the presence of the ligand” value [4]?
Answer: The value was 20±4%.

Question: Which results are given for `C[C@@H](O)[C@@H]1NC(=O)[C@H](CCCCN)NC(=O)[C@@H](Cc2c[nH]c3ccccc23)NC(=O)[C@H](Cc2ccccc2)NC(=O)[C@@H](NC(=O)[C@H](N)Cc2ccccc2)CSSC[C@@H](C(=O)N[C@H](CO)[C@@H](C)O)NC1=O` [octreotide]?
Answer: analgesic effect [5]: powerful analgesic effects; neurobehavioral effect [6]: Parkinsonian syndrome

Question: For `CCN1CCCC1CNC(=O)c1cc(S(N)(=O)=O)ccc1OC` (stereo not shown) [sulpiride], which “τavg[S] mean photobleaching time constant, D − A” value ([1]; donor in absence of acceptor, ± SEM) is on record?
Answer: The value was “D − A: 17.9 ± 0.3 S”.

Question: What about the “τavg[S] mean photobleaching time constant, D + A” value ([1]; donor in presence of acceptor, ± SEM) of the same compound?
Answer: Its value is “D + A: 19.2 ± 0.3 S”.

Question: And the “effect on SST inhibition of forskolin-stimulated cAMP” value [2]?
Answer: The value was “completely abolished”.

Question: For pertussis toxin, which “effect on SST inhibition of forskolin-stimulated cAMP” value [2] is on record?
Answer: The value was “completely abolished”.
